Several values for one entry are separate records, joined by “and”; a condition that tells them apart may be missing. Equal entries are not always repeated.
Key:
[1] = biological target: Integrin alpha-IIb/beta-3 (Homo sapiens, UniProt P05106+P08514); assay: Inhibitory activity was determined against human alpha IIb beta3 integrin; format: protein-complex assay
[2] = biological target: Integrin alpha-V/beta-3 and alpha-IIb/beta 3 (Homo sapiens) (UniProt P05106+P06756+P08514); assay: Ratio of inhibitory activity against human alpha V beta-3 integrin to that of alpha IIb beta-3 integrin; format: protein assay
Homo sapiens = species: Homo sapiens; assay: Inhibition of human vascular smooth muscle proliferation was determined; format: functional; settings: Muscle tissue
Integrin alpha-V/beta-3 = Integrin alpha-V/beta-3 (Homo sapiens, UniProt P05106+P06756); assay: Inhibitory activity was determined against human vitronectin receptor (alpha V beta 3); format: protein-complex assay
Sequence of Integrin alpha-V/beta-3 (P05106 27-788 limits assumed): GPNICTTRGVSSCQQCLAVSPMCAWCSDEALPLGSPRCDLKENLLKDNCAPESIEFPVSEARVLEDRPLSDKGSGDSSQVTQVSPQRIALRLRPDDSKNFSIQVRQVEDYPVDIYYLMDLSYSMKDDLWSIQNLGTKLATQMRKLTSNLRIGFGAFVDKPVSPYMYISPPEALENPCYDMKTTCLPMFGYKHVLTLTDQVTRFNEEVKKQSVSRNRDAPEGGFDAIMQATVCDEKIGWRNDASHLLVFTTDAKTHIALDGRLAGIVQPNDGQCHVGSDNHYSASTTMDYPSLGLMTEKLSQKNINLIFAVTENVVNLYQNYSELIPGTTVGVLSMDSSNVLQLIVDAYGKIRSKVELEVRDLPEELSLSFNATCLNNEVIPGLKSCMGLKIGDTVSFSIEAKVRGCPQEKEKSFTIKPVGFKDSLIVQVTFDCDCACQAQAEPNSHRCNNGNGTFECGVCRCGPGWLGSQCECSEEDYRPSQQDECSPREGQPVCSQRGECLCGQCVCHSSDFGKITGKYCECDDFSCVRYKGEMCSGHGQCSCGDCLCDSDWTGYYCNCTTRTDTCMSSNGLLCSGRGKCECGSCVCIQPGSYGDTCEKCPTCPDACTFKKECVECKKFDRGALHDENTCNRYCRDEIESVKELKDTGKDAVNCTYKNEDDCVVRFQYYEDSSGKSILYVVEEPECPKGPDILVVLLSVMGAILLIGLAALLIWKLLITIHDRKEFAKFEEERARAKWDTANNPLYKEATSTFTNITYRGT
Sequence of Integrin alpha-V/beta-3 (P06756 31-889 limits assumed): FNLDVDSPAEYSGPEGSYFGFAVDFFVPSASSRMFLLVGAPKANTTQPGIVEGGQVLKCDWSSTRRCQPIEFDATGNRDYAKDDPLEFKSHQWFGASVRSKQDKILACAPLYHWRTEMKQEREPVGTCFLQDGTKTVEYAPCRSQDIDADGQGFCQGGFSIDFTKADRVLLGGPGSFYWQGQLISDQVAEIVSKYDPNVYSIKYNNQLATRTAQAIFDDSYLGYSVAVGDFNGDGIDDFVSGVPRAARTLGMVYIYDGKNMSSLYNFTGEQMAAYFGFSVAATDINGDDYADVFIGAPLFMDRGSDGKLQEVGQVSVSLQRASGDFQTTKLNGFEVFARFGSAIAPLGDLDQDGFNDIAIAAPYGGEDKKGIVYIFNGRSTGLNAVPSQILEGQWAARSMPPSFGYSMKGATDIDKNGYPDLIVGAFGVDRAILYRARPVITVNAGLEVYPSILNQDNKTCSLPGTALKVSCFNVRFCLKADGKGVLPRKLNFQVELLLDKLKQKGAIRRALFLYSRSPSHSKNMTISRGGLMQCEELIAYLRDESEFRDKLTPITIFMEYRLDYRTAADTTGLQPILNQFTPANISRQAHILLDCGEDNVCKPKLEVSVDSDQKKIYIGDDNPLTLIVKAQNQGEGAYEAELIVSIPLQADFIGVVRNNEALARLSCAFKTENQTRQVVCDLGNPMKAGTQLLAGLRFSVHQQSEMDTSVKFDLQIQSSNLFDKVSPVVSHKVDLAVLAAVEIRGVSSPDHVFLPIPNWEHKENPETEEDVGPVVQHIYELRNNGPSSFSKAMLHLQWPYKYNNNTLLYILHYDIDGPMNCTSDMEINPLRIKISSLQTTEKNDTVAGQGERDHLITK
Sequence of Integrin alpha-V/beta-3 (P06756 891-1048 limits assumed): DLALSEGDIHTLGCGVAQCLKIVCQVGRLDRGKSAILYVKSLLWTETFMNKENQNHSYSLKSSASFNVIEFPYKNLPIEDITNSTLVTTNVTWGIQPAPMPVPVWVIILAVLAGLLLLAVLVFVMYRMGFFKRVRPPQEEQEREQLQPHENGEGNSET

Rattus norvegicus [3] = assay: Ratio of Intima area to media area was tested by subcutaneous infusion of compound at a constant rate of 1.3 umol/rat/day; format: functional
Rattus norvegicus [4] = assay: Antistenoic effect infused subcutaneously at a constant rate of 0.14 umol/rat/day; format: functional
Rattus norvegicus [5] = assay: Antistenoic effect infused subcutaneously at a constant rate of 1.3 umol/rat/day; format: functional
Rattus norvegicus [6] = assay: Antistenoic effect infused subcutaneously at a constant rate of 0.43 umol/rat/day; format: functional

Sequence of Integrin alpha-IIb/beta-3 (P05106 27-788 limits assumed): as the sequence (P05106 27-788 limits assumed) above
Sequence of Integrin alpha-IIb/beta-3 (P08514 32-887 limits assumed): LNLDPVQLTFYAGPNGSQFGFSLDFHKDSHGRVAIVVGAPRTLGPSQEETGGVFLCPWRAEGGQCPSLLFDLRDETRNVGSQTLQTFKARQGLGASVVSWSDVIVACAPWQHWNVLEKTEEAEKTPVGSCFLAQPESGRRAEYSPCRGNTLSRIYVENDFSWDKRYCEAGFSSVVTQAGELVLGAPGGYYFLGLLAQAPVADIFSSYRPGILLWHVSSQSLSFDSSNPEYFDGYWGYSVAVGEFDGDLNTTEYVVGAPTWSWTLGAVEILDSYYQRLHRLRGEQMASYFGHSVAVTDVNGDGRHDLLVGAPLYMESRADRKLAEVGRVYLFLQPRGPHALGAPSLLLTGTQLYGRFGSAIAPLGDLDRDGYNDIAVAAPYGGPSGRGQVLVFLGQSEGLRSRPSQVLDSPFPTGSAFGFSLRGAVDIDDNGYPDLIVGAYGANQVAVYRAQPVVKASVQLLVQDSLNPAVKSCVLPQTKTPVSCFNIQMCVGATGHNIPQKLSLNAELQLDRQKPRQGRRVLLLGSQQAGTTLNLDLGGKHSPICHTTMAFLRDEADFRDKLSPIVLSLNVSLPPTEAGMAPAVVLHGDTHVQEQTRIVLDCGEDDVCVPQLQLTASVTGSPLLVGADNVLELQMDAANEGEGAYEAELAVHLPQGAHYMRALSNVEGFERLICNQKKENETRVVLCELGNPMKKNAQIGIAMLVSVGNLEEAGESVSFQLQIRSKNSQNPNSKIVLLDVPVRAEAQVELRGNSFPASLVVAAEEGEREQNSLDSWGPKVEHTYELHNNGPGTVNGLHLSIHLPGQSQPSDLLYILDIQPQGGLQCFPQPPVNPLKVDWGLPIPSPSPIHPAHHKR
Sequence of Integrin alpha-IIb/beta-3 (P08514 891-1039 limits assumed): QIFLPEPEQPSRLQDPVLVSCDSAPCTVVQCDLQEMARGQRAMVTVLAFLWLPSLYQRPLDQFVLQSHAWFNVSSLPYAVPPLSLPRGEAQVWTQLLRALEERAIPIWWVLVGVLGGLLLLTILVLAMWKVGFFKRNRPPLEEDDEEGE

| SMILES | IC50 [1] | Ratio [2] | IC50 (Integrin alpha-V/beta-3) | IC50 (Homo sapiens) | intima/media ratio (Rattus norvegicus [3]) | Inhibition (Rattus norvegicus [4]) | Inhibition (Rattus norvegicus [5]) | Intima area (Rattus norvegicus [5]) | Inhibition (Rattus norvegicus [6]) |
| --- | --- | --- | --- | --- | --- | --- | --- | --- | --- |
| O=C(Cc1ccccc1)N[C@@H](CCC(=O)N1CCN(c2cccc(NC3=NCCCN3)c2)CC1)C(=O)O | > 1000 nM | > 150 | – | > 10000 nM | – | – | – | – | – |
| CC(C)COC(=O)N[C@@H](CCC(=O)N1CCN(c2cccc(NC3=NCC(C)(C)CN3)c2)CC1)C(=O)O | > 1000 nM | > 2600 | – | 3400 nM | – | – | – | – | – |
| O=C(N[C@@H](CCC(=O)N1CCN(c2cccc(NC3=NCCN3)c2)CC1)C(=O)O)OCc1ccccc1 | – | 4500 | – | 3000 nM | – | – | – | – | – |
| O=C(N[C@@H](CCC(=O)N1CCN(c2cccc(NC3=NCC(O)CN3)c2)CC1)C(=O)O)OCc1ccccc1 (stereo partly specified) | – | 2300 | – | 3500 nM | – | – | – | – | – |
| CC(C)COC(=O)N[C@@H](CCC(=O)N1CCN(c2cccc(NC3=NCC(F)CN3)c2)CC1)C(=O)O (stereo partly specified) | > 1000 nM | > 18000 | – | 180 nM | 0.5 | 21% | 54% and 53% | 81 10e3 um2 and 162 10e3 um2 | 38% |
| O=C(NCc1ccccc1)N[C@@H](CCC(=O)N1CCN(c2cccc(NC3=NCCCN3)c2)CC1)C(=O)O | > 1000 nM | > 710 | – | > 10000 nM | – | – | – | – | – |
| O=C(N[C@@H](CCC(=O)N1CCN(c2cccc(NC3=NCC(F)CN3)c2)CC1)C(=O)O)OCc1ccccc1 (stereo partly specified) | – | 8600 | – | 260 nM | 0.76 | – | 38% and 34% | 113 10e3 um2 and 149 10e3 um2 | – |
| CCOC(=O)N[C@@H](CCC(=O)N1CCN(c2cccc(NC3=NCCCN3)c2)CC1)C(=O)O | > 1000 nM | > 1700 | – | 2100 nM | – | – | – | – | – |
| Cc1cc(C)c(S(=O)(=O)N[C@@H](CCC(=O)N2CCN(c3cccc(NC4=NCCCN4)c3)CC2)C(=O)O)c(C)c1 | – | 140 | – | > 10000 nM | – | – | – | – | – |
| O=C(N[C@@H](CCC(=O)N1CCN(c2cccc(NC3=NCCCCN3)c2)CC1)C(=O)O)OCc1ccccc1 | > 1000 nM | > 18000 | – | 1700 nM | – | – | – | – | – |

The next lines start with results.

| IC50 [1] | Ratio [2] | IC50 (Integrin alpha-V/beta-3) | SMILES | IC50 (Homo sapiens) | intima/media ratio (Rattus norvegicus [3]) | Inhibition (Rattus norvegicus [4]) | Inhibition (Rattus norvegicus [5]) | Intima area (Rattus norvegicus [5]) | Inhibition (Rattus norvegicus [6]) |
| --- | --- | --- | --- | --- | --- | --- | --- | --- | --- |
| > 1000 nM | > 33000 | – | CC(C)COC(=O)N[C@@H](CCC(=O)N1CCN(c2cccc(NC3=NCC(O)CN3)c2)CC1)C(=O)O (stereo partly specified) | 2000 nM | – | – | – | – | – |
| 88 nM | 63 | 1.4 nM | O=C(O)[C@H](CCC(=O)N1CCN(c2cccc(NC3=NCCCN3)c2)CC1)NS(=O)(=O)c1ccccc1 | > 10000 nM | – | – | – | – | – |
| > 1000 nM | > 3100 | – | CC(C)COC(=O)N[C@@H](CCC(=O)N1CCN(c2cccc(NC3=NCCCN3)c2)CC1)C(=O)O | 910 nM | – | – | – | – | – |
| > 1000 nM | > 280 | – | CCNC(=O)N[C@@H](CCC(=O)N1CCN(c2cccc(NC3=NCCCN3)c2)CC1)C(=O)O | > 10000 nM | – | – | – | – | – |
| 660 nM | 11000 | 0.058 nM | O=C(N[C@@H](CCC(=O)N1CCN(c2cccc(NC3=NCCCN3)c2)CC1)C(=O)O)OCc1ccccc1 | 1100 nM | – | – | – | – | – |

Source: ChEMBL document CHEMBL1146737, “Discovery of a potent and selective alpha v beta 3 integrin antagonist with strong inhibitory activity against neointima formation in rat balloon injury model” (Bioorg Med Chem Lett, 2004)
